{
  "source": "patent US20120171660A1",
  "about": "“METHOD FOR SCREENING AND PURIFYING ENTEROVIRUS, METHOD FOR MASS-PRODUCING ENTEROVIRUS, AND METHOD FOR MANUFACTURING ENTEROVIRUS VACCINE” (priority 2011, published 2012)",
  "key": {"[1]": {"tested_on": "EV71", "experiment": "ELISA, EV71 binding to monosaccharide-PAA coated plate", "parameters": "species or system Enterovirus 71", "conditions": "OD450; for specific binding to EV71 (FIG. 1D): 10^6 PFU EV71, plate coated with monosaccharide-PAA, versus control without EV71", "description": "ELISA was also performed to detect the binding activities between EV71 and monosaccharides in the present embodiment, and the process of ELISA of the present embodiment is similar to that of Embodiment 1.\n(§1) In addition, specific bindings between different enteroviruses and monosaccharides were also detected. First, 10^6 PFU of enteroviruses, EV71, Coxsackievirus A16 (CA16), Coxsackievirus B3 (Cox B3, CB3), and Coxsackievirus B2 (Cox B2, CB2), were added in to a 96-well plate coated with glucose-PAA and galactose-PAA."}, "[2]": {"tested_on": "EV71 on SK-N-SH cells", "experiment": "Plaque assay, EV71 replication on SK-N-SH cells with monosaccharides", "type": "cell-based, Enterovirus 71", "conditions": "EV71 incubated with 0.625 M, 0.125M, 0.25M sugar, 72 hours; for production of EV71 on SK-N-SH cells, virus titer (FIG. 4A): 1 hour at 37° C., no wash; for production of EV71 on SK-N-SH cells, absorption stage (FIG. 4B): unbound viruses washed away by PBS after 1 hour", "description": "Plaque assay was used to understand the relation between the monosaccharides and the replication of EV71 in the present embodiment.\nHost cells, SK-N-SH cells (2×10^5 cells/well), were seeded in a 24-well plate, and incubated for 16-18 hours to form a monolayer cell. SK-N-SH cells were infected with EV71, which was incubated with different concentrations of glucose, galactose or N-acetylgalactosamine (0.625 M, 0.125M, and 0.25M). After 1 hour incubation at 37° C., DMEM with 1.6% methylcellulose and 2% FBS was added to incubate at 37° C. for 72 hours.\nFirst, SK-N-SH cells were infected with EV71, which were incubated with different concentrations of glucose, galactose or N-acetylgalactosamine (0.625 M, 0.125M, and 0.25M). After 1 hour incubation at 37° C., unbound viruses were washed away by PBS, DMEM with 1.6% methylcellulose and 2% FBS was added to incubate at 37° C. for 72 hours.\nIn addition, SK-N-SH cells were infected with EV71 in a glucose-containing medium. After 1 hour incubation at 37° C., viruses, which were unbound on the 24-well plate were washed away with PBS. Then, the infected host cells were incubated in a medium containing 0.25M glucose or galactose (supplemented with 1.6% methylcellulose and 2% FBS) at 37° C. for 72 hours."}, "[3]": {"target": "EV71 binding to galectin-1 (Homo sapiens, UniProt P09382)", "sequence (P09382 2-135 limits assumed)": "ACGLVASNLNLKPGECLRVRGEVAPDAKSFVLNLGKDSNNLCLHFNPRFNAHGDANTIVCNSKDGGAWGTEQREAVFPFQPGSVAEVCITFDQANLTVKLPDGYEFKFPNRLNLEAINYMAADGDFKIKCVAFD", "experiment": "ELISA, competition of monosaccharides with EV71 binding to galectin-1", "parameters": "species or system Enterovirus 71", "conditions": "EV71 incubated with the sugar at different concentrations at 4° C. for 2 hours; galectin-1 coated plate", "description": "ELISA was used to detect the competition between monosaccharides and EV71 or lectins. First, EV71 was incubated in a medium supplemented with galactose, glucose, N-acetyl galactosamines, sucrose, or mannose with different concentration (conc.) at 4° C. for 2 hours. […] It is because the monosaccharides bound on the EV71 may first bind to lectins, so the binding between lectins and EV71 may further be inhibited."}, "[4]": {"tested_on": "EV71", "experiment": "ELISA, biotin-labeled monosaccharide-PAA binding to EV71 captured on anti-EV71 antibody plate", "parameters": "species or system Enterovirus 71", "conditions": "OD450; for binding of EV71 to monosaccharide (FIG. 1A): 10^6 PFU of EV71, biotin-labeled monosaccharide-PAA, compared to control without viruses or 10^6 PFU Dengue viruses; for binding activity between EV71 and monosaccharide versus amount of EV71 (FIG. 1B): 10 fold serial dilution of EV71 from 10^6 PFU to 10^2 PFU", "description": "Enzyme-linked immunosorbent assay (ELISA) was used to detect the binding activities between EV71 and monosaccharides in the present embodiment. First, EV71 was added into a 96-well plate (Genesis, Taiwan) and bound to anti-EV71 antibody coated on the 96-well plate. Then, biotin-labeled monosaccharide polymers, such as glucose-PAA (polyacrylamide), mannose-PAA, galactose-PAA, N-acetyl-galactosamine-PAA (GalNAc-PAA), and N-acetyl-glucosamine-PAA (GlcNAc-PAA) were added into the 96-well plate, and reacted with EV71 at room temperature."}, "[5]": {"tested_on": "influenza virus (Flu)", "experiment": "ELISA, influenza virus binding to galectin-1 coated plate", "conditions": "10^6 PFU of virus, OD450"}, "[6]": {"tested_on": "dengue virus (DV)", "experiment": "ELISA, dengue virus binding to galectin-1 coated plate", "conditions": "10^6 PFU of virus, OD450", "method": "In addition, 106 PFU of different viruses including EV71, CA16, influenza virus (Flu) or dengue virus (DV) were added into a 96-well plate coated with galactin-1. Then, anti-EV71 antibody and HRP-conjugated goat anti-mouse IgG antibody were sequentially added into the 96-well plate."}, "[7]": {"tested_on": "CA16", "experiment": "ELISA, CA16 binding to galectin-1 coated plate", "parameters": "species or system Coxsackievirus A16", "conditions": "10^6 PFU of virus, OD450"}, "[8]": {"tested_on": "EV71", "experiment": "ELISA, EV71 binding to galectin-1 coated plate", "parameters": "species or system Enterovirus 71", "description": "Except the aforementioned lectins, the binding activity between EV71 and mammalian lectin such as galectin-1 was also detected in the present embodiment. First, a different amount of EV71 (10 fold serial dilution from 10^6 PFU to 10^4 PFU) was incubated in a 96-well plate coated with galectin-1.\nIt means that the monosaccharides such as glucose may first bind to EV71 during the formation of EV71 viral particles, and the monosaccharides bound on EV71 may further participate in the binding between EV71 and galactin-1."}, "[9]": {"tested_on": "Coxsackievirus B3 (Cox B3, CB3)", "experiment": "ELISA, CB3 binding to monosaccharide-PAA coated plate", "conditions": "10^6 PFU; plate coated with glucose-PAA or galactose-PAA; OD450", "description": "as §1"}, "[10]": {"tested_on": "Coxsackievirus A16 (CA16)", "experiment": "ELISA, CA16 binding to monosaccharide-PAA coated plate", "conditions": "10^6 PFU; plate coated with glucose-PAA or galactose-PAA; OD450", "description": "as §1"}, "[11]": {"tested_on": "Coxsackievirus B2 (Cox B2, CB2)", "experiment": "ELISA, CB2 binding to monosaccharide-PAA coated plate", "conditions": "10^6 PFU; plate coated with glucose-PAA or galactose-PAA; OD450", "description": "as §1"}},
  "data": [
    {"molecule": "CC(=O)N[C@H]1C(O)O[C@H](CO)[C@@H](O)[C@@H]1O", "note": "(some centres unmarked) [N-acetyl-glucosamine]", "values": [
      {"measurement": "specific binding to EV71 (FIG. 1D)", "setting": "[1]", "result": "can specifically bind"}
    ]},
    {"molecule": "CC(=O)N[C@H]1C(O)O[C@H](CO)[C@H](O)[C@@H]1O", "note": "(some centres unmarked) [N-acetyl-galactosamine]", "values": [
      {"measurement": "production of EV71 on SK-N-SH cells, virus titer (FIG. 4A)", "setting": "[2]", "result": "enhance the production of EV71"},
      {"measurement": "production of EV71 on SK-N-SH cells, absorption stage (FIG. 4B)", "setting": "[2]", "result": "enhance the production of EV71"},
      {"measurement": "effect on binding between EV71 and lectins (galectin-1) by competition (FIG. 3)", "setting": "[3]", "result": "partially inhibited"},
      {"measurement": "specific binding to EV71 (FIG. 1D)", "setting": "[1]", "result": "can specifically bind"},
      {"measurement": "binding of EV71 to monosaccharide (FIG. 1A)", "setting": "[4]", "result": "can bind"},
      {"measurement": "binding activity between EV71 and monosaccharide versus amount of EV71 (FIG. 1B)", "setting": "[4]", "result": "enhanced as the amount of EV71 was increased"}
    ]},
    {"molecule": "galactin-1: mammalian lectin such as galectin-1, coated on 96-well plate", "values": [
      {"measurement": "binding of galectin-1 to influenza virus (FIG. 2D)", "setting": "[5]", "result": "does not bind"},
      {"measurement": "binding of galectin-1 to dengue virus (FIG. 2D)", "setting": "[6]", "result": "does not bind"},
      {"measurement": "binding of galectin-1 to CA16 (FIG. 2D)", "setting": "[7]", "result": "specifically binds"},
      {"measurement": "binding to galectin-1 of EV71 incubated in sugar-free medium (FIG. 2E)", "setting": "[8]; 10^6 PFU EV71 incubated in glucose-free medium", "result": "cannot bind"},
      {"measurement": "binding of galectin-1 to EV71 (FIG. 2D)", "setting": "[8]; 10^6 PFU of virus, galectin-1 coated plate, OD450", "result": "specifically binds"},
      {"measurement": "binding of EV71 to galectin-1 (FIG. 2C)", "setting": "[8]; EV71 10 fold serial dilution from 10^6 PFU to 10^4 PFU, bound amount increases with EV71 added", "result": "binds"}
    ]},
    {"molecule": "O=C[C@H](O)[C@@H](O)[C@@H](O)[C@H](O)CO", "note": "[galactose]", "values": [
      {"measurement": "binding activity to CB3 (FIGS. 1E, 1F)", "setting": "[9]", "result": "do not show any binding activity"},
      {"measurement": "specific binding to CA16 (FIGS. 1E, 1F)", "setting": "[10]", "result": "can specifically bind"},
      {"measurement": "production of EV71 on SK-N-SH cells, virus titer (FIG. 4A)", "setting": "[2]", "result": "enhance the production of EV71"},
      {"measurement": "production of EV71 on SK-N-SH cells, absorption stage (FIG. 4B)", "setting": "[2]", "result": "enhance the production of EV71"},
      {"measurement": "effect on binding between EV71 and lectins (galectin-1) by competition (FIG. 3)", "setting": "[3]", "result": "partially inhibited"},
      {"measurement": "specific binding to EV71 (FIG. 1D)", "setting": "[1]", "result": "can specifically bind"},
      {"measurement": "binding activity to EV71 (FIGS. 1E, 1F)", "setting": "[1]; 10^6 PFU, plate coated with glucose-PAA or galactose-PAA", "result": "high binding activity"},
      {"measurement": "binding of EV71 to monosaccharide (FIG. 1A)", "setting": "[4]", "result": "can bind"},
      {"measurement": "binding activity between EV71 and monosaccharide versus amount of EV71 (FIG. 1B)", "setting": "[4]", "result": "enhanced as the amount of EV71 was increased"},
      {"measurement": "binding activity to CB2 (FIGS. 1E, 1F)", "setting": "[11]", "result": "do not show any binding activity"}
    ]}
  ]
}
